{"source": "patent US9018244B2", "about": "“Benzopyran compounds, compositions and uses thereof” (Olema Pharmaceuticals, Inc., priority 2011, dated 2015)", "key": {"[1]": {"test_system": "E2-stimulated estrogen response element (ERE)-regulated reporter gene activity", "assay": "ERE-tk109-Luc reporter gene assay in MCF-7 cells", "assay_type": "cell-based, human", "details": "100 pM E2, 18-22 hours", "description": "(§1) FIG. 10. […] A) OP-1074 had similar potency to model anti-estrogens in the ERE reporter gene assay. MCF-7 cells were transiently transfected with ERE-tk109-Luc and treated with anti-estrogens in hormone-depleted medium in the presence of 100 pM E2 for 22 hours. Results were from a single representative experiment and reported as the mean percent induction relative to E2 from triplicate treatments, with error bars representing SEM. […] Results were from a single representative experiment and reported as the mean percent induction relative to E2 from triplicate treatments, with error bars representing SEM. IC50's were calculated using the least squares fit method.\nCompounds of invention are tested for their inhibitory activity of estrogen according to the assay methods described in Hodges-Gallagher, L., Valentine, C. V., El Bader, S. and Kushner, P. J. (2007) “Histone Deacetylase Inhibitors Enhance the Efficacy of Hormonal Therapy Agents on Breast Cancer Cells and Blocks Anti-estrogen-Driven Uterine Cell Proliferation” Breast Cancer Res Treat, November; 105(3):297-309. Specifically, an estrogen-responsive reporter gene (ERE-tk109-Luc) was transiently transfected into MCF-7 cells and treated with anti-estrogens in triplicate in the presence of 100 pM 17β-estradiol (E2) for 18-22 hours. Luciferase activity was normalized to activity of E2 alone and IC50's were calculated using the least squares fit method. This method is also described in legend for FIG. 10."}, "[2]": {"test_system": "human MCF-7 breast cancer cells", "assay": "E2-stimulated proliferation of MCF-7 breast cancer cells", "assay_type": "cell-based", "details": "MCF-7 cells, 100 pM E2, 6-8 days", "description": "as §1, with “11.” for “10.”, “inhibiting E2-stimulated proliferation of breast cells in vitro.” for “the ERE reporter gene assay.”, “were” for “were transiently transfected with ERE-tk109-Luc and”, “medium for 6-8 days” for “medium”, “E2. Proliferation was measured using Cyquant fluorescent DNA-binding dye (Invitrogen, Grand Island, N.Y.).” for “E2 for 22 hours.”\nProliferation in MCF-7 was measured using a fluorescent DNA binding dye 6-8 days after treatment in triplicate with anti-estrogens in the presence of 100 pM E2 and as described in the legend to, and depicted in FIG. 11."}, "[3]": {"target": "T1, estrogen receptor alpha (ERα) (Homo sapiens, UniProt P03372)", "T1 construct": "endogenous in cells", "T1 sequence (P03372 1-595)": "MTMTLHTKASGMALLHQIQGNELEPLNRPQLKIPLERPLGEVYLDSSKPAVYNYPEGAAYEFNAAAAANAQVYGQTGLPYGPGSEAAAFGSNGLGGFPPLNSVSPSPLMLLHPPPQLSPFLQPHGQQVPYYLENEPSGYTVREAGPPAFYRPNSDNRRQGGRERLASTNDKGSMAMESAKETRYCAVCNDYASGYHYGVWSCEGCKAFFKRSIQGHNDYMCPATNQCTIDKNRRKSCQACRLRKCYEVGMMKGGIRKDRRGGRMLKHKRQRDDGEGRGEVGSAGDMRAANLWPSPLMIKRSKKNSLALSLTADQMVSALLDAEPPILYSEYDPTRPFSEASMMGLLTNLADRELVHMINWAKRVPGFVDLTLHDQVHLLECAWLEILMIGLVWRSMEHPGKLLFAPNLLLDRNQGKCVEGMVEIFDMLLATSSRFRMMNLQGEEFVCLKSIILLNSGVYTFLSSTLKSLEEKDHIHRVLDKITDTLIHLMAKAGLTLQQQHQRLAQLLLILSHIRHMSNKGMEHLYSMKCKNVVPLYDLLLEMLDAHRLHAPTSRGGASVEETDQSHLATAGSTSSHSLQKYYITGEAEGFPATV", "assay": "ERα expression by immunoblot after anti-estrogen treatment", "assay_type": "cell-based", "details": "100 nM anti-estrogen, 22-24 hours, serum-free medium; MCF-7 breast cells and ECC-1 endometrial cells", "description": "FIG. 12. […] A) ERα levels in breast cells after treatment with OP-1074 compared to treatment with model anti-estrogens. MCF-7 cells were treated with 100 nM anti-estrogen for 24 hours in serum-free medium and protein extracts immunoblotted with an antibody to ERα (D12, Santa Cruz Biotechnology, Santa Cruz, Calif.). Image is from a single representative experiment and number on top denotes the mean percent ERα expression relative to vehicle from quadruplicate treatments. B) OP-1038 induces degradation of ERα in both MCF-7 breast cells and ECC-1 endometrial cells.\nERα expression was detected in MCF-7 cell lysates treated with 100 nM anti-estrogens in serum-free medium for 22-24 hours and immunoblotted with an antibody specific to ERα as described in the legend to, and depicted in FIG. 12."}}, "note": "Entries after “also recorded” stand apart in the source; their conditions may differ."}
{"smiles": "CC1=C(c2ccc(O)cc2)C(c2ccc(OCCN3CC[C@@H](C)C3)cc2)Oc2cc(O)ccc21", "note": "(stereo partly drawn) [OP-1038, 3-(4-hydroxyphenyl)-4-methyl-2-(4-{2-[(3R)-3-methylpyrrolidin-1-yl]ethoxy}phenyl)-2H-chromen-7-ol]", "values": [{"measurement": "Antagonism of E2-stimulated ERE-regulated reporter gene activity", "setting": "[1]", "result": "improved potency; also recorded: potent antagonists"}, {"measurement": "Antagonism of E2-stimulated proliferation", "setting": "[2]", "result": "improved potency; also recorded: potent antagonists"}, {"measurement": "Degradation of ERα", "setting": "[3]", "result": "comparable to fulvestrant; also recorded: induce degradation"}]}
{"smiles": "CC1=C(c2ccc(O)cc2)[C@H](c2ccc(OCCN3CC[C@@H](C)C3)cc2)Oc2cc(O)ccc21", "note": "[OP-1074, (2S)-3-(4-hydroxyphenyl)-4-methyl-2-(4-{2-[(3R)-3-methylpyrrolidin-1-yl]ethoxy}phenyl)-2H-chromen-7-ol]", "values": [{"measurement": "Antagonism of E2-stimulated ERE-regulated reporter gene activity", "setting": "[1]", "result": "improved potency; also recorded: potent antagonists"}, {"measurement": "Antagonism of E2-stimulated proliferation", "setting": "[2]", "result": "improved potency; also recorded: potent antagonists"}, {"measurement": "Degradation of ERα", "setting": "[3]", "result": "comparable to fulvestrant; also recorded: induce degradation"}]}
